We go through ten molecules from US20090047244A1, “MACROCYCLIC SERINE PROTEASE INHIBITORS I” (Idenix Pharmaceuticals, Inc., priority 2007, published 2009).

The conditions of data set [1]: rcm bond.
The target in the next data set is T1, HCV NS3-NS4A protease (Hepatitis C virus genotype 1a, UniProt P27958).
T1 construct: made in house
Briefly: HCV Protease Assay (SensoLyte 620 HCV Protease Assay kit). In kind it is biochemical. The note with it: 1.2 nM HCV NS3-NS4A protease, 5% DMSO, 60 min at room temperature. As to the method: General procedure: Measurement of the inhibitory effect of compounds on HCV protease activity was performed with the SensoLyte™ 620 HCV Protease Assay kit from AnaSpec, Inc. (San Jose, Calif.) under conditions described by the supplier using 1.2 nM HCV NS3-NS4A protease, which was obtained according to Taremi et al. (Protein Science, 1998, 7, 2143-2149). The compounds were tested at a variety of concentrations in assay buffer containing a final DMSO concentration of 5%. Reactions were allowed to proceed for 60 min at room temperature and fluorescence measurements were recorded with a Tecan Infinity Spectrofluorimeter. The IC50 values were determined from the percent inhibition versus concentration data using a sigmoidal non-linear regression analysis based on four parameters with Tecan Magellan software.

Data set [2] concerns Huh-7 cells containing HCV Con1 subgenomic replicon (GS4.1 cells). Briefly: HCV Replicon Assay (NS4A ELISA). In kind it is cell-based. Particulars: Hepatitis C virus, 72 hr, NS4A protein expression by ELISA. As to the method:
General procedure: Huh-7 cells containing HCV Con1 subgenomic replicon (GS4.1 cells) were grown in Dulbecco's Modified Eagle Medium (DMEM) supplemented with 10% fetal bovine serum (FBS), 2 mM L-glutamine, 110 mg/L sodium pyruvate, 1X non-essential amino acids, 100 U/mL penicillin-streptomycin, and 0.5 mg/mL G418 (Invitrogen). For dose-response testing, the cells were seeded in 96-well plates at 7.5×10^3 cells/well in a volume of 50 μL, and incubated at 37° C./5% CO2. Three hours after plating, 50 μL of ten 2-fold serial dilutions of compounds (highest concentration, 75 μM) were added, and cell cultures were incubated at 37° C./5% CO2 in the presence of 0.5% DMSO. Alternatively, compounds were tested at a single concentration of 15 μM. In all cases, Huh-7 cells lacking the HCV replicon served as negative control. The cells were incubated in the presence of compounds for 72 hr after which they were monitored for expression of the NS4A protein by enzyme-linked immunosorbent assay (ELISA). For this, the plates were then fixed for 1 min with acetone/methanol (1:1, v/v), washed twice with phosphate-buffered saline (PBS), 0.1% Tween 20, blocked for 1 hr at room temperature with TNE buffer containing 10% FBS and then incubated for 2 hr at 37° C. with the anti-NS4A mouse monoclonal antibody A-236 (ViroGen) diluted in the same buffer. After washing three times with PBS, 0.1% Tween 20, the cells were incubated 1 hr at 37° C. with anti-mouse immunoglobulin G-peroxidase conjugate in TNE, 10% FBS. After washing as described above, the reaction was developed with O-phenylenediamine (Zymed). The reaction was stopped after 30 min with 2 N H2SO4, and absorbance was read at 492 nm using Sunrise Tecan spectrophotometer. EC50 values were determined from the % inhibition versus concentration data using a sigmoidal non-linear regression analysis based on four parameters with Tecan Magellan software. When screening at a single concentration, the results were expressed as % inhibition at 15 μM.
For orientation: In antiviral work, replicon cells carry a viral genome segment that copies itself.

Data set [3] in a line: Cytotoxicity evaluation (Cell Titer 96 AQueous One Solution Cell Proliferation Assay). The note with it: human; GS4.1 cells, cellular viability. In kind it is cell-based. As to the method:
For cytotoxicity evaluation, GS4.1 cells were treated with compounds as described above and cellular viability was monitored using the Cell Titer 96 AQueous One Solution Cell Proliferation Assay (Promega). CC50 values were determined from the % cytotoxicity versus concentration data with Tecan Magellan software as described above.

Where two headings read alike, the source gives them in different places. Where only a bound is given, the exact number is not on record here.

T1 sequence (P27958 1027-1208): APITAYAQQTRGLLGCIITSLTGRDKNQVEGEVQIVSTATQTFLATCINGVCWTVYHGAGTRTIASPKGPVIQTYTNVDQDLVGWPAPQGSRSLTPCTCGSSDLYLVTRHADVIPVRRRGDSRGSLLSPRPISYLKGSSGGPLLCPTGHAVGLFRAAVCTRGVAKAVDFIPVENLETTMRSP

In data set [1] (from C=CCCCCCN(C)C(=O)N[C@@H](CCOc1cc(-c2ccccc2)nc2cc(OC)ccc12)C(=O)N[C@]1(C(=O)OCC)C[C@H]1C=C, Hoveyda-Grubbs 1st generation, DCM, 1.6 mM, 40.0 °C, 16.0 h), `CCOC(=O)[C@@]12C[C@H]1C=CCCCCCN(C)C(=O)N[C@@H](CCOc1cc(-c3ccccc3)nc3cc(OC)ccc13)C(=O)N2` had a ring closure, yield of all isomers of 64%.
With `CCOC(=O)[C@@]12C[C@H]1C=CCCCCN(C)C(=O)N[C@@H](CCOc1cc(-c3ccccc3)nc3cc(OC)ccc13)C(=O)N2`, the ring closure, yield of all isomers in data set [1] (from C=CCCCCN(C)C(=O)N[C@@H](CCOc1cc(-c2ccccc2)nc2cc(OC)ccc12)C(=O)N[C@]1(C(=O)OCC)C[C@H]1C=C, Hoveyda-Grubbs 1st generation, DCM, 1.6 mM, 40.0 °C, 16.0 h) turned out to be 22%.
In data set [1] (from C=CCCCCN(C)C(=O)N[C@@H](CCO[Si](C)(C)C(C)(C)C)C(=O)N[C@]1(C(=O)OCC)C[C@H]1C=C, Hoveyda-Grubbs 1st generation, DCM, 1.96 mM, 40.0 °C, 24.0 h), `CCOC(=O)[C@@]12C[C@H]1/C=C\CCCCN(C)C(=O)N[C@@H](CCO[Si](C)(C)C(C)(C)C)C(=O)N2` came in with a ring closure, yield of all isomers of 50%.
`COc1ccc2c(OCC[C@@H]3NC(=O)N(C)CCCCC=C[C@@H]4C[C@@]4(C(=O)NS(=O)(=O)C4CC4)NC3=O)cc(-c3ccccc3)nc2c1` had a ring closure, yield of all isomers in data set [1] (from C=CCCCCN(C)C(=O)N[C@@H](CCOc1cc(-c2ccccc2)nc2cc(OC)ccc12)C(=O)N[C@]1(C(=O)NS(=O)(=O)C2CC2)C[C@H]1C=C, Hoveyda-Grubbs 2nd generation, DCM, 1.5 mM, 100.0 °C, 1.0 h) of 7.9%.
Consider `COc1ccc2c(OCCC3NC(=O)N(C)CCCC/C=C\C4CC4(C(=O)NS(=O)(=O)N(C)C)NC3=O)cc(-c3nc(C(C)C)cs3)nc2c1Cl` (centres unmarked), for which, at HCV NS3-NS4A protease, the half-maximal inhibitory concentration (IC50) was below 0.1 µM. This molecule also yielded an EC50 in data set [2] below 0.1 µM. The CC50 in data set [3] is above 1000 µM.
For `COc1ccc2c(OCC[C@@H]3NC(=O)N(C)CCCC/C=C\[C@@H]4C[C@@]4(C(=O)NS(=O)(=O)C4(C)CC4)NC3=O)cc(-c3csc(NC(C)C)n3)nc2c1`, the IC50 at HCV NS3-NS4A protease is below 0.1 µM. In addition, the EC50 in data set [2] fell in the range of 0.1 to 10 µM. In data set [3], the CC50 is above 1000 µM.
For `C#C[C@@H]1CCCN1S(=O)(=O)NC(=O)[C@@]12C[C@H]1/C=C\CCCCN(C)C(=O)N[C@@H](CCOc1cc(-c3nc(C(C)C)cs3)nc3c(Cl)c(OC)ccc13)C(=O)N2`, in that order: below 0.1 µM, 0.1 to 10 µM and above 1000 µM.
For `COc1ccc2c(OCC[C@@H]3NC(=O)N(C)CCCC/C=C\[C@@H]4C[C@@]4(C(=O)NS(=O)(=O)C4(C)CC4)NC3=O)cc(-n3ccc(C(C)C)n3)nc2c1Cl`, in that order: below 0.1 µM, below 0.1 µM and above 1000 µM.
Molecule `CCCn1ccc(-c2cc(OCC[C@@H]3NC(=O)N(C)CCCC/C=C\[C@@H]4C[C@@]4(C(=O)NS(=O)(=O)C4(C)CC4)NC3=O)c3ccc(OC)c(C)c3n2)n1` showed an IC50 at HCV NS3-NS4A protease below 0.1 µM. In data set [2], this molecule returned an EC50 of 0.1 to 10 µM. Besides, the CC50 in data set [3] is above 1000 µM.
The molecule `CCOC(=O)[C@@]12C[C@H]1C=CCCCCN(C)C(=O)N[C@@H](CO[Si](C)(C)C(C)(C)C)C(=O)N2` returned a ring closure, yield of all isomers in data set [1] (from C=CCCCCN(C)C(=O)N[C@@H](CO[Si](C)(C)C(C)(C)C)C(=O)N[C@]1(C(=O)OCC)C[C@H]1C=C, Hoveyda-Grubbs 1st generation, 1,2-dichloroethane, 9.9 mM, 70.0 °C, 16.0 h) of 48.1%.

As a reminder, the IC50 is the concentration that inhibits the measured activity by half. Low values mean higher potency, high ones lower potency. What is called EC50 is the concentration that produces a half-maximal response. Low values mean higher potency in that assay, high ones lower potency in that assay. What is called CC50 is the concentration that lowers cell viability or growth by half. Higher therefore signals lower toxicity to the cells.
